# From patent US20060128769A1, “Thiazoyl biphenyl amides” (priority 2002, published 2006)
# Like-named read-outs stand apart in the source and are kept apart here.
# What was measured:
# [1] = logP determination by HPLC on a reversed-phase column (C 18), EEC Directive 79/831 Annex V.A8; assay type: physicochemical; details: reversed-phase HPLC column (C 18)
# Protocol: The logP values given in the preparation examples and tables above are determined in accordance with EEC Directive 79/831 Annex V.A8 by HPLC (High Performance Liquid Chromatography) using a reversed-phase column (C 18). Temperature: 43° C. The determination is carried out in the acidic range at pH 2.3 using the mobile phases 0.1% aqueous phosphoric acid and acetonitrile; linear gradient from 10% acetonitrile to 90% acetonitrile. Calibration is carried out using unbranched alkan-2-ones (having 3 to 16 carbon atoms) with known logP values (determination of the logP values by the retention times using linear interpolation between two successive alkanones).
# Sphaerotheca fuliginea = test: Sphaerotheca test (cucumber)/protective; assay type: in vivo; details: Podosphaera fuliginea, 168 h, protective, application rate 100 g/ha, evaluation 7 days after inoculation, read-out: % efficacy
# Protocol: • Solvents: 24.5 parts by weight of acetone 24.5 parts by weight of dimethylacetamide • Emulsifier: 1 part by weight of alkylaryl polyglycol ether
# (§1) To produce a suitable preparation of active compound, 1 part by weight of active compound is mixed with the stated amounts of solvents and emulsifier, and the concentrate is diluted with water to the desired concentration.
# To test for protective activity, young plants are sprayed with the preparation of active compound at the stated application rate. After the spray coating has dried on, the plants are inoculated with an aqueous spore suspension of Sphaerotheca fuliginea. The plants are then placed in a greenhouse at about 23° C. and a relative atmospheric humidity of about 70%.
# Evaluation is carried out 7 days after the inoculation. 0% means an efficacy which corresponds to that of the control, whereas an efficacy of 100% means that no infection is observed.
# Venturia inaequalis = test: Venturia test (apple)/protective; assay type: in vivo; details: 240 h, protective, application rate 100 g/ha, evaluation 10 days after inoculation, read-out: % efficacy
# Protocol: (§2) • Solvents: 24.5 parts by weight of acetone 24.5 parts by weight of dimethylacetamide • Emulsifier: 1.0 part by weight of alkylaryl polyglycol ether
# as §1
# To test for protective activity, young plants are sprayed with the preparation of active compound at the stated application rate. After the spray coating has dried on, the plants are inoculated with an aqueous conidia suspension of the apple scab pathogen Venturia inaequalis and then remain in an incubation cabin at about 20° C. and 100% relative atmospheric humidity for one day.
# The plants are then placed in a greenhouse at about 21° C. and a relative atmospheric humidity of about 90%.
# Evaluation is carried out 10 days after the inoculation. 0% means an efficacy which corresponds to that of the control, whereas an efficacy of 100% means that no infection is observed.
# Botrytis cinerea = test: Botrytis test (bean)/protective; assay type: in vivo; details: 48 h, protective, application rate 500 g/ha, evaluation 2 days after inoculation, read-out: % efficacy
# Protocol: as §2, §1
# To test for protective activity, young plants are sprayed with the preparation of active compound at the stated application rate. After the spray coating has dried on, 2 small pieces of agar colonized by Botrytis cinerea are placed onto each leaf. The inoculated plants are placed in a dark chamber at about 20° C. and 100% relative atmospheric humidity.
# 2 days after the inoculation, the size of the infected areas on leaves is evaluated. 0% means an efficacy which corresponds to that of the control, whereas an efficacy of 100% means that no infection is observed.
# Alternaria solani = test: Alternaria test (tomato)/protective; assay type: in vivo; details: 168 h, protective, application rate 750 g/ha, evaluation 7 days after inoculation, read-out: % efficacy
# Protocol: • Solvent: 49 parts by weight of N,N-dimethylformaide • Emulsifier: 1 part by weight of alkylaryl polyglycol ether To produce a suitable preparation of active compound, 1 part by weight of active compound is mixed with the stated amounts of solvent and emulsifier, and the concentrate is diluted with water to the desired concentration. To test for protective activity, young tomato plants are sprayed with the preparation of active compound at the stated application rate. 1 day after the treatment, the plants are inoculated with an aqueous spore suspension of Alternaria solani and then remain at 100% relative humidity for 24 hours. The plants then remain at about 96% relative atmospheric humidity and a temperature of 20° C. Evaluation is carried out 7 days after the inoculation. 0% means an efficacy which corresponds to that of the control, whereas an efficacy of 100% means that no infection is observed.
# [2] = pH 2.3, HPLC reversed-phase C 18, 43° C., 0.1% aqueous phosphoric acid/acetonitrile, read-out: logP (pH 2.3)
# [3] = Table 1, acidic range pH 2.3, HPLC reversed-phase C 18, 43° C., read-out: logP
Compound,"chromatographic logP [1, 2]",melting point,"chromatographic logP [1, 3]",Emax at 100 g/ha (Sphaerotheca fuliginea),Emax at 100 g/ha (Venturia inaequalis),Emax at 500 g/ha (Botrytis cinerea),Emax at 750 g/ha (Alternaria solani)
Cc1nc(C(F)F)c(C(=O)N(C)c2ccccc2-c2ccc(Br)cc2)s1 [Example 6],,,3.44,100%,,,
Cc1nc(C(F)F)c(C(=O)N(C(=O)c2sc(C)nc2C(F)F)c2ccccc2-c2cc(Cl)cc(Cl)c2)s1 [Example 4],,,4.28,100%,99%,94%,95%
Cc1nc(C(F)F)c(C(=O)N(C)c2ccccc2-c2ccc(Cl)cc2)s1 [Example 2],3.34,,,95%,,,
"CC(=O)N(C(=O)c1sc(C)nc1C(F)F)c1ccccc1-c1ccc(Br)cc1 [Example 1, N-acetyl-N-(4′-bromo-1,1′-biphenyl-2-yl)-4-(difluoromethyl)-2-methyl-1,3-thiazole-5-carboxamide]",3.61,,,100%,100%,98%,

# The next lines start with results.
"chromatographic logP [1, 2]",melting point,"chromatographic logP [1, 3]",Compound,Emax at 100 g/ha (Sphaerotheca fuliginea),Emax at 100 g/ha (Venturia inaequalis),Emax at 500 g/ha (Botrytis cinerea),Emax at 750 g/ha (Alternaria solani)
3.26,144 °C,,"Cc1nc(C(F)F)c(C(=O)Nc2ccccc2-c2ccc(Cl)cc2)s1 [II-2, N-(4′-chloro-1,1′-biphenyl-2-yl)-2-methyl-4-(difluoromethyl)-1,3-thiazole-5-carboxamide]",,,,
3.34,151 °C,,"Cc1nc(C(F)F)c(C(=O)Nc2ccccc2-c2ccc(Br)cc2)s1 [II-1, N-(4′-bromo-1,1′-biphenyl-2-yl)-2-methyl-4-(difluoromethyl)-1,3-thiazole-5-carboxamide]",,,,
